# According to patent US6348461B1, “6,7-asymmetrically disubstituted quinoxalinecarboxylic acid derivatives, addition salts thereof, and processes for the preparation of both” (Kyorin Pharmaceutical Co., Ltd., priority 1997, dated 2002):
# Structures can show the parent of a compound that is named as a salt.
row,melting point,SMILES
1,196 to 198 °C (dec.),"O=C(NCc1ccn(-c2cc3nc(C(=O)O)c(=O)[nH]c3cc2C(F)(F)F)c1)Nc1ccc(Br)cc1 [Example 185, 7-(3-(((4-Bromophenyl)aminocarbonylamino)methyl)pyrrole-1-yl)-3,4-dihydro-3-oxo-6-trifluoromethylquinoxaline-2-carboxylic Acid]"
2,> 300 °C,"NC(=O)c1nc2cc(F)c([N+](=O)[O-])cc2[nH]c1=O [Example 69, 3,4-Dihydro-7-fluoro-6-nitro-3-oxoquinoxaline-2-carboxamide]"
3,300 °C,"O=C(NCc1ccn(-c2cc3nc(C(=O)O)c(=O)[nH]c3cc2C(F)(F)F)c1)Nc1cccc(C(=O)O)c1 [Example 187, 7-(3-(((3-Carboxyphenyl)aminocarbonylamino)methyl)pyrrole-1-yl)-3,4-dihydro-3-oxo-6-trifluoromethylquinoxaline-2-carboxylic Acid]"
4,218 to 220 °C (dec.),"Nc1cc2nc(C(=O)O)c(=O)[nH]c2cc1C(F)(F)F [Example 164, 7-Amino-3,4-dihydro-3-oxo-6-trifluoromethylquinoxaline-2-carboxylic Acid]"
5,> 300 °C,"CN(C)Cc1cc2nc(C(=O)O)c(=O)[nH]c2cc1[N+](=O)[O-] [Example 67, 3,4-Dihydro-7-dimethylaminomethyl-6-nitro-3-oxoquinoxaline-2-carboxylic Acid]"
6,209 to 211 °C (dec.),"O=C(O)c1nc2cc(CN3CCOCC3)c([N+](=O)[O-])cc2[nH]c1=O (as salt: hydrochloride) [Example 160, 3,4-Dihydro-7-(morpholine-1-yl)methyl-6-nitro-3-oxoquinoxaline-2-carboxylic Acid Hydrochloride]"
7,204 to 206 °C,"COc1ccccc1N1CCN(c2cc3nc(C(=O)O)c(=O)[nH]c3cc2[N+](=O)[O-])CC1 [Example 59, 3,4-Dihydro-7-(4-(2-methoxyphenyl)piperazine-1-yl)-6-nitro-3-oxoquinoxaline-2-carboxylic Acid]"
8,193 to 195 °C (dec.),"O=C(Nc1ccccc1)OCc1cn(-c2cc3nc(C(=O)O)c(=O)[nH]c3cc2C(F)(F)F)cn1 [Example 235, 3,4-Dihydro-3-oxo-7-((4-(N-phenylcarbamoyloxy)methyl)imidazole-1-yl)-6-trifluoromethylquinoxaline-2-carboxylic Acid]"
9,282 to 284 °C (dec.),"O=C(Nc1ccccc1)Nc1cn(-c2cc3nc(C(=O)O)c(=O)[nH]c3cc2[N+](=O)[O-])ccc1=O [Example 129, 3,4-Dihydro-6-nitro-3-oxo-7-(3-(phenylaminocarbonylamino)-4-pyridone-1-yl)quinoxaline-2-carboxylic Acid]"
10,250 to 252 °C (dec.),"O=C(Nc1cccc(C(=O)O)c1)OCc1cn(-c2cc3nc(C(=O)O)c(=O)[nH]c3cc2[N+](=O)[O-])ccc1=O [Example 125, 7-(3-((N-(3-Carboxyphenyl)carbamoyloxy)methyl)-4-pyridone-1-yl)-3,4-dihydro-6-nitro-3-oxoquinoxaline-2-carboxylic Acid]"
11,235.5 to 237.5 °C,"O=C(O)c1nc2cc(N3CCN(c4ccc(F)cc4)CC3)c([N+](=O)[O-])cc2[nH]c1=O [Example 54, 3,4-Dihydro-7-(4-(4-fluorophenyl)piperazine-1-yl)-6-nitro-3-oxoquinoxaline-2-carboxylic Acid]"
12,272 to 274 °C (dec.),"O=C(Nc1cccc(C(=O)O)c1)OCc1cn(-c2cc3nc(C(=O)O)c(=O)[nH]c3cc2[N+](=O)[O-])cn1 [Example 116, 7-(4-((N-(3-Carboxyphenyl)carbamoyloxy)methyl)imidazolyl)-3,4-dihydro-6-nitro-3-oxoquinoxaline-2-carboxylic Acid]"
13,300 °C (dec.),"O=C(NCc1cn(-c2cc3nc(C(=O)O)c(=O)[nH]c3cc2[N+](=O)[O-])cn1)Nc1ccc(C(=O)O)cc1 (as salt: salt) [Example 119, 7-(4-(((4-Carboxyphenyl)aminocarbonylamino)methyl)imidazolyl)-3,4-dihydro-6-nitro-3-oxoquinoxaline-2-carboxylic Acid]"
